The target in test [1] is T1, recombinant human ALK5 (TGF-βR1) protein (Homo sapiens, UniProt P36897).
T1 construct: purchased Life Technologies PR9075A
T1 sequence (P36897 34-503): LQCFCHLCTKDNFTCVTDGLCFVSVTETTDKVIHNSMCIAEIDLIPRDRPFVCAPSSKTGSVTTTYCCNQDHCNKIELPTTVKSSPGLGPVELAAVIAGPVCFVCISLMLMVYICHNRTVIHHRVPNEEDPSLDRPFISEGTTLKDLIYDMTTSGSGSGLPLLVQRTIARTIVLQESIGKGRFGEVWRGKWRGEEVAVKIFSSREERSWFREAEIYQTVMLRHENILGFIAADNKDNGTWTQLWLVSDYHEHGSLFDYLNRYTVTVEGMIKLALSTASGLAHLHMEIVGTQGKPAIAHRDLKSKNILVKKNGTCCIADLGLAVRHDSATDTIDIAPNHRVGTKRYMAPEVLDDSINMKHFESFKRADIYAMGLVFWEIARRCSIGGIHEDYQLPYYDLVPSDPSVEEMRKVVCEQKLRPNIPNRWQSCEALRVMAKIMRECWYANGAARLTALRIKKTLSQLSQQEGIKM
Nature of the test: Biochemical ALK5 (TGF-βR1) assay to measure pKi (LANCE Ultra ULight kinase assay). The conditions noted are these: apparent pKi from pIC50 by Cheng-Prusoff, read-out: ALK5 pKi (converted). Here is the method: The assays were performed in a 384-well plate (24 columns×16 wells/rows). An Echo® 550 Liquid Handler (Labcyte) was used to prepare various intermediate concentrations of compounds of the present disclosure in 100% DMSO. From the intermediate concentrations, a range of concentrations (from 10 μM to 25 pM corresponding to volumes up to 105 nL) were prepared and ejected into a final assay plate to be used to create individual dose response curves for each of the subject compounds. To a separate column within the assay plate, 105 nL of DMSO in each well was used to establish a maximum assay signal.
With a multidrop dispenser, 8 μL of enzyme mixture (1.25× final) was added to each well. […] The plate was then sealed with an adhesive seal and allowed to equilibrate for 60 minutes at room temperature.
Next, 2 μL of 125 μM ATP (5× final, 125 μM ATP prepared in assay buffer with 2 mM DTT) was added to the incubated mixtures, covered with a MicroClime® Environmental Lid (Product No. LLS-0310, Labcyte) and immediately transferred to 37° C. The reactions were allowed to proceed at 37° C. for 60 minutes before terminating with the addition of 10 μL of detection antibody (LANCE® (lanthanide chelate excite) Ultra Europium-anti-phospo-DNA Topoisomerase 2-alpha (Thr1342)) in detection mixture (12 mM EDTA, 4 nM detection antibody prepared in detection buffer (50 mM Tris-HCl, 150 mM NaCl, 0.5% BSA (Fraction V), pH 7.0)) at room temperature. The plate was then read on a Perkin Elmer EnVision Plate Reader using europium specific reader settings with excitation and emission wavelengths set to 320 or 340 nm and 665 nm, respectively.
For dose-response analyses, percent inhibition versus compound concentrations were plotted, and pIC50 values were determined from a 4-parameter robust fit model with GraphPad Prism V5 Software (GraphPad Software, Inc., La Jolla, Calif.). This model obtains pIC50 values by fitting the sigmoidal dose-response (variable slope) equation to the data. Results were expressed as pIC50 (negative logarithm of IC50) and subsequently converted to pKi (negative logarithm of dissociate constant, K) using the Cheng-Prusoff equation. The higher the value of pKi (lower value of Ki), the greater the inhibition of ALK5 activity.
(Time-resolved FRET reads energy transfer from a long-lived donor to a nearby acceptor.)

The test system of test [2] is TGF-β-stimulated SMAD3 phosphorylation in BEAS-2B cells. Nature of the test: Cellular ALK5 potency assay, inhibition of TGF-β stimulated pSMAD3 formation in BEAS-2B cells. It is filed as cell-based. The conditions noted are these: Homo sapiens; inhibition of TGF-β stimulated pSMAD3 formation, BEAS-2B cells; read-out: BEAS2B pIC50 (converted). Here is the method:
The potency of compounds of the present disclosure for inhibition of TGF-β-stimulated SMAD3 phosphorylation was measured in BEAS-2B cells, a human lung epithelial cell line. TGF-β signals through activin receptor-like kinase 5 (ALK5) immediately prior to SMAD3 phosphorylation.
BEAS-2B cells were grown using 50% DMEM (Life Technologies) and 50% F-12 (Life Technologies) media, supplemented with 10% Fetal Bovine Serum (ATCC), 25 mM HEPES (Life Technologies), and 1× Pen-Strep (Life Technologies). Cells were cultured in a humidified incubator set at 37° C., 5% CO2, and trypsonized using 0.25% Trypsin with 0.5% polyvinylpyrrolidone (PVP).
For the assay, BEAS-2B cells were seeded at 7,500 cells/well (25 μL/well) in a 384-well plate and cultured overnight. Before dosing, growth media was aspirated and the wells were rinsed with HBSS Buffer (HBSS with Calcium and Magnesium, Life Technologies) supplemented with 25 mM HEPES (Life Technologies) and 1% Bovine Serum Albumin (Roche). Compounds were serially diluted in DMSO, then further diluted with supplemented HBSS Buffer (50 μL/well) to create a compound plate 3× of the final assay concentration, at 0.3% DMSO. The diluted compounds were then added to the cells (8 μL/well) and incubated at 37° C., 5% CO2 for 1 hour. After the compound incubation, TGF-β (R&D Systems) reconstituted in supplemented HBSS Buffer was added to the cells ([…], final concentration 10 ng/mL) and incubated for a further 30 minutes, after which the cells were immediately lysed with AlphaLISA lysis buffer (PerkinElmer). AlphaLISA Acceptor and Detector beads (PerkinElmer) were added 2 hours apart, then incubated overnight to be read the next day. The potency of the compound was determined through analysis of dose-dependent quantified changes in pSMAD3 signal from baseline (non-compound treated TGF-β stimulated cells). Data are expressed as pIC50 (negative decadic logarithm IC50) values.

A value given as a limit tells only on which side of the number the result lay.

`Cc1nc(-c2n[nH]cc2-c2ccc3ncc(N4CC[C@H](N(C)C)C4)cc3n2)ccc1F` [Compound 135, (3S)-1-[6-[3-(5-fluoro-6-methyl-2-pyridyl)-1H-pyrazol-4-yl]-1,5-naphthyridin-3-yl]-N,N-dimethyl-pyrrolidin-3-amine]: the Ki in test [1] is below 0.0316 nM. In addition, the IC50 in test [2] was 25.1 to 158 nM.

Regarding `Cc1cccc(-c2n[nH]cc2-c2ccc3ncc(-c4ccn(C)n4)cc3n2)n1` [Compound 692, 7-(1-methylpyrazol-3-yl)-2-[3-(6-methyl-2-pyridyl)-1H-pyrazol-4-yl]-1,5-naphthyridine], the Ki in test [1] was below 0.0316 nM. The IC50 in test [2] was below 20 nM.

On to `Cc1cccc(-c2n[nH]cc2-c2ccc3nccc(C(=O)NCCCCC(NC(=O)CN)C(=O)O)c3n2)n1` (racemic) [Compound 805, rac-(2S)-2-[(2-aminoacetyl)amino]-6-[[6-[3-(6-methyl-2-pyridyl)-1H-pyrazol-4-yl]-1,5-naphthyridine-4-carbonyl]amino]hexanoic acid], for which, in test [1], the Ki is 0.398 to 3.16 nM. The IC50 in test [2] is 1580 to 10000 nM.

As for `CN[C@H]1CC[C@@H](OC(=O)c2cnc3ccc(-c4cn[nH]c4-c4cccc(C)n4)cc3c2)CC1` [Compound 1195, [4-(methylamino)cyclohexyl] 6-[5-(6-methyl-2-pyridyl)-1H-pyrazol-4-yl]quinoline-3-carboxylate], in test [1], the Ki is 0.0398 to 0.316 nM. Moreover, the IC50 in test [2] is 25.1 to 158 nM.

With `CNC1CN(c2cnc3ccc(-c4c[nH]nc4-c4cccc(C)n4)nc3c2)C1` [Compound 94, N-methyl-1-[6-[3-(6-methyl-2-pyridyl)-1H-pyrazol-4-yl]-1,5-naphthyridin-3-yl]azetidin-3-amine], the Ki in test [1] was 0.0398 to 0.316 nM. For the same compound, the IC50 in test [2] was 25.1 to 158 nM.

As to `Cc1cccc(-c2[nH]cnc2-c2ccc3ncc(C4=CCC(N(C)C)CC4)cc3c2)n1` (centres unmarked) [Compound 629, N,N-dimethyl-4-(6-(5-(6-methylpyridin-2-yl)-1H-imidazol-4-yl)quinolin-3-yl)cyclohex-3-en-1-amine], the Ki in test [1] was below 0.0316 nM. Besides, in test [2], the IC50 was 25.1 to 158 nM.

As for `Cc1cccc(-c2[nH]cnc2-c2ccc3ncc(Nc4ccc(N5CCNCC5)cn4)cc3c2)n1` [Compound 519, 6-[5-(6-methyl-2-pyridyl)-1H-imidazol-4-yl]-N-(5-piperazin-1-yl-2-pyridyl)quinolin-3-amine], the Ki in test [1] was 0.0398 to 0.316 nM. Also, in test [2], the IC50 is 200 to 1260 nM.

For `Cc1cccc(-c2nc3ccccn3c2-c2ccc3ncc(-c4cc5n(n4)CCNC5)cc3n2)n1` [Compound 693, 2-[2-(6-methyl-2-pyridyl)imidazo[1,2-a]pyridin-3-yl]-7-(4,5,6,7-tetrahydropyrazolo[1,5-a]pyrazin-2-yl)-1,5-naphthyridine], the Ki in test [1] was below 0.0316 nM. Also, the IC50 in test [2] was below 20 nM.

Consider `Cc1cccc(-c2n[nH]cc2-c2ccc3ncc(-c4ccc(N)nc4)cc3n2)n1` [Compound 562, 5-[6-[3-(6-methyl-2-pyridyl)-1H-pyrazol-4-yl]-1,5-naphthyridin-3-yl]pyridin-2-amine], for which the Ki in test [1] was below 0.0316 nM. In test [2], the IC50 is below 20 nM.

Turning to `Cc1cccc(-c2nc3ccccn3c2-c2ccc3ncc(N4CCCNCC4)cc3n2)n1` [Compound 646, 7-(1,4-diazepan-1-yl)-2-[2-(6-methyl-2-pyridyl)imidazo[1,2-a]pyridin-3-yl]-1,5-naphthyridine], the Ki in test [1] is 0.0398 to 0.316 nM. The IC50 in test [2] was 25.1 to 158 nM.

For `Cc1cccc(-c2[nH]cnc2-c2ccc3ncc(-c4nc(C(=O)OC5CNC5)cs4)cc3c2)n1` [Compound 745, azetidin-3-yl 2-[6-[5-(6-methyl-2-pyridyl)-1H-imidazol-4-yl]-3-quinolyl]thiazole-4-carboxylate], the Ki in test [1] is 0.0398 to 0.316 nM. For the same compound, the IC50 in test [2] was 25.1 to 158 nM.

For `Cc1nc(-c2n[nH]cc2-c2ccc3ncc(-c4cc5n(n4)CCN5)cc3n2)ccc1F` [Compound 574, 7-(2,3-dihydro-1H-imidazo[1,2-b]pyrazol-6-yl)-2-[3-(5-fluoro-6-methyl-2-pyridyl)-1H-pyrazol-4-yl]-1,5-naphthyridine], the Ki in test [1] was below 0.0316 nM. Besides, the IC50 in test [2] was below 20 nM.

For `Cc1cccc(-c2[nH]ncc2-c2ccc3ncc(C(=O)OCC4CCNCC4)cc3n2)n1` [Compound 211, 4-piperidylmethyl 6-[5-(6-methyl-2-pyridyl)-1H-pyrazol-4-yl]-1,5-naphthyridine-3-carboxylate], the Ki in test [1] is 0.0398 to 0.316 nM. Besides, the IC50 in test [2] was 25.1 to 158 nM.

Regarding `Cc1cccc(-c2[nH]cnc2-c2ccc3ncc(-c4cncc(C(=O)O[C@@H]5CCNC5)c4)cc3c2)n1` [Compound 725, [(3R)-pyrrolidin-3-yl] 5-[6-[5-(6-methyl-2-pyridyl)-1H-imidazol-4-yl]-3-quinolyl]pyridine-3-carboxylate], the Ki in test [1] was 0.0398 to 0.316 nM. The IC50 in test [2] is 25.1 to 158 nM.

As for `Cc1cccc(-c2n[nH]cc2-c2ccc3ncc(NC(=O)CCCN4CCOCC4)cc3n2)n1` [Compound 358, N-[6-[3-(6-methyl-2-pyridyl)-1H-pyrazol-4-yl]-1,5-naphthyridin-3-yl]-4-morpholino-butanamide], in test [1], the Ki was 0.0398 to 0.316 nM. Moreover, the IC50 in test [2] was 25.1 to 158 nM.

`Cc1cccc(-c2[nH]cnc2-c2ccc3ncc(-c4cc(C(=O)OCCN5CCNCC5)cs4)cc3c2)n1` [Compound 1141, 2-piperazin-1-ylethyl 5-[6-[5-(6-methyl-2-pyridyl)-1H-imidazol-4-yl]-3-quinolyl]thiophene-3-carboxylate]: in test [1], the Ki was 0.0398 to 0.316 nM. In addition, in test [2], the IC50 was 25.1 to 158 nM.

`CNCCn1cc(-c2cnc3ccc(-c4c[nH]nc4-c4ccc(F)c(C)n4)nc3c2C)cn1` [Compound 870, 2-[4-[6-[3-(5-fluoro-6-methyl-2-pyridyl)-1H-pyrazol-4-yl]-4-methyl-1,5-naphthyridin-3-yl]pyrazol-1-yl]-N-methyl-ethanamine]: in test [2], the IC50 was 25.1 to 158 nM.

For the compound `Cc1nc(-c2n[nH]cc2-c2ccc3ncc(-c4cnn(C5CCC(N)CC5)c4)cc3n2)ccc1F` (centres unmarked) [Compound 459, 4-[4-[6-[3-(5-fluoro-6-methyl-2-pyridyl)-1H-pyrazol-4-yl]-1,5-naphthyridin-3-yl]pyrazol-1-yl]cyclohexanamine], the IC50 in test [2] is 25.1 to 158 nM.

Consider `Cc1nc(-c2n[nH]cc2-c2ccc3ncc(-c4cnn(C5CC(N)C5)c4)cc3n2)ccc1F` (centres unmarked) [Compound 647, 3-[4-[6-[3-(5-fluoro-6-methyl-2-pyridyl)-1H-pyrazol-4-yl]-1,5-naphthyridin-3-yl]pyrazol-1-yl]cyclobutanamine], for which the IC50 in test [2] was 25.1 to 158 nM.

Source of the values: US11590116B2 (THERAVANCE BIOPHARMA R&D IP, LLC, priority 2019, dated 2023).
